Test results from ChEMBL document CHEMBL5523706, “Structure-based drug design of DNA minor groove binders and evaluation of their antibacterial and anticancer properties” (Eur J Med Chem, 2024).
≈ marks a conversion by molar mass, not a printed value. Calls of active or inactive are those of the source. The rule behind the calls is not given here.

Tests used:
Escherichia coli [1] = assay: Bactericidal activity against Escherichia coli K1 MTCC 710859 assessed as reduction in bacterial viability at 100 uM incubated for 2 hrs in autoclaved distilled water followed by culturing on agar for overnight; assay type: functional; details: for inhibition at 100 µM: K1 MTCC 710859, 2 h
Salmonella enterica [2] = assay: Bactericidal activity against Salmonella enterica ATCC 14028 assessed as reduction in bacterial viability at 100 uM incubated for 2 hrs in autoclaved distilled water followed by culturing on agar for overnight; assay type: functional; details: ATCC 14028, 2 h
Serratia marcescens [3] = assay: Bactericidal activity against Serratia marcescens ATCC 13880 assessed as reduction in bacterial viability at 100 uM incubated for 2 hrs in autoclaved distilled water followed by culturing on agar for overnight; assay type: functional
Streptococcus pyogenes [4] = assay: Bactericidal activity against Streptococcus pyogenes ATCC 49399 assessed as reduction in bacterial viability at 100 uM incubated for 2 hrs in autoclaved distilled water followed by culturing on agar for overnight; assay type: functional; details: for inhibition at 100 µM: ATCC 49399, 2 h
Streptococcus pneumoniae [5] = assay: Bactericidal activity against Streptococcus pneumoniae ATCC 13883 assessed as reduction in bacterial viability at 100 uM incubated for 2 hrs in autoclaved distilled water followed by culturing on agar for overnight; assay type: functional; details: for inhibition at 100 µM: ATCC 13883, 2 h
Bacillus cereus [6] = assay: Bactericidal activity against Bacillus cereus MTCC 131621 assessed as reduction in bacterial viability at 100 uM incubated for 2 hrs in autoclaved distilled water followed by culturing on agar for overnight; assay type: functional; details: MTCC 131621, 2 h
Escherichia coli [7] = assay: Bactericidal activity against Escherichia coli K1 MTCC 710859 assessed as reduction in bacterial viability incubated for 2 hrs in autoclaved distilled water followed by culturing on agar for overnight; assay type: functional; details: K1 MTCC 710859, 2 h
Streptococcus pyogenes [8] = assay: Bactericidal activity against Streptococcus pyogenes ATCC 49399 assessed as reduction in bacterial viability incubated for 2 hrs in autoclaved distilled water followed by culturing on agar for overnight; assay type: functional; details: ATCC 49399, 2 h
Streptococcus pneumoniae [9] = assay: Bactericidal activity against Streptococcus pneumoniae ATCC 13883 assessed as reduction in bacterial viability incubated for 2 hrs in autoclaved distilled water followed by culturing on agar for overnight; assay type: functional; details: ATCC 13883, 2 h
Bacillus cereus [10] = assay: Bactericidal activity against Bacillus cereus MTCC 131621 assessed as reduction in bacterial viability incubated for 2 hrs in autoclaved distilled water followed by culturing on agar for overnight; assay type: functional; details: MTCC 131621, 2 h
Bacillus cereus [11] = assay: Antibacterial activity against Bacillus cereus assessed as reduction in bacteria-mediated cytopathogenicity pretreated with bacteria followed by incubation with human cells; assay type: functional
Salmonella enterica [12] = assay: Antibacterial activity against Salmonella enterica assessed as reduction in bacteria-mediated cytopathogenicity pretreated with bacteria followed by incubation with human cells; assay type: functional
[13] = system: Panel NCI-60 (60 carcinoma cell lines); assay: Antitumor activity against human NCI-60 cells assessed as inhibition of cell growth at 10 uM incubated for 48 hrs by SRB assay; assay type: functional
NHDF = assay: Cytotoxicity against human HDF cells assessed as reduction in cell viability at 50 uM incubated for 24 hrs by MTT assay; assay type: toxicity, cell-based
DNA [14] = assay: Binding affinity to minor groove of d(5'-GCGACTAGTCGC3')2 duplex DNA (unknown origin) assessed as change in melting temperature at 2 equiv. in presence of 8 uM DNA measured at 30 to 100 degC by UV spectrophotometric analysis; assay type: nucleic-acid assay
[15] = Dissociation constant, pKa of the compound; assay type: physicochemical
Salmonella enterica [16] = assay: Bactericidal activity against Salmonella enterica ATCC 14028 assessed as reduction in bacterial viability incubated for 2 hrs in autoclaved distilled water followed by culturing on agar for overnight; assay type: functional; details: ATCC 14028, 2 h
[17] = Cytotoxicity against human HDF cells assessed as reduction in cell viability at 50 uM incubated for 24 hrs by MTT assay relative to control; assay type: toxicity, cell-based; details: HDF cells (NHDF cell line), read-out: INH
DNA [18] = assay: Binding affinity to d(5'-GCGACTAGTCGC-3')2 duplex DNA (unknown origin) at 10 uM measured at 298K by isothermal titration calorimetry; assay type: nucleic-acid assay
DNA [19] = assay: Binding affinity to d(5'-GCGACTAGTCGC-3')2 duplex DNA (unknown origin) assessed as change in enthalpy at 10 uM measured at 298K by isothermal titration calorimetry; assay type: nucleic-acid assay
DNA [20] = assay: Binding affinity to d(5'-GCGACTAGTCGC-3')2 duplex DNA (unknown origin) assessed as change in entropy at 10 uM measured at 298K by isothermal titration calorimetry; assay type: nucleic-acid assay
DNA [21] = assay: Binding affinity to d(5'-GCGACTAGTCGC-3')2 duplex DNA (unknown origin) assessed as change in free energy at 10 uM measured at 298K by isothermal titration calorimetry; assay type: nucleic-acid assay
DNA [22] = assay: Binding affinity to d(5'-GCGACTAGTCGC-3')2 duplex DNA (unknown origin) at DNA to ligand stoichiometric ratio of 0.5:1 measured at 298K by isothermal titration calorimetry; assay type: nucleic-acid assay
Serratia marcescens [23] = assay: Bactericidal activity against Serratia marcescens ATCC 13880 assessed as reduction in bacterial viability incubated for 2 hrs in autoclaved distilled water followed by culturing on agar for overnight; assay type: functional; details: ATCC 13880, 2 h

## Cn1cc(NC(=O)c2cc(NC(=O)c3ccc(/C=C/c4ccccc4)cc3)cn2C)cc1C(=O)NCCCN1CCOCC1
Escherichia coli [1]
  inhibition at 100 µM: 50%
Salmonella enterica [2]
  inhibition at 100 µM: 95%
Serratia marcescens [3]
  Activity: inactive
Streptococcus pyogenes [4]
  inhibition at 100 µM: 67%
Streptococcus pneumoniae [5]
  inhibition at 100 µM: 100%
Bacillus cereus [6]
  inhibition at 100 µM: 87%
Escherichia coli [7]
  MIC90: 76 µM (≈ 45.2 µg/mL)
Streptococcus pyogenes [8]
  MIC90: 55 µM (≈ 32.7 µg/mL)
Streptococcus pneumoniae [9]
  MIC90: 47 µM (≈ 28 µg/mL)
Bacillus cereus [10]
  MIC50: 37 µM (≈ 22 µg/mL)
  MIC90: 34.3 µM (≈ 20.4 µg/mL)
Bacillus cereus [11]
  inhibition (INH): 70%
Salmonella enterica [12]
  inhibition (INH): 44%
[13]
  inhibition at 10 µM: 94.1%
NHDF
  Activity: Non-Toxic
DNA [14]
  ΔTm: 21 °C
[15]
  pKa: 7.01

## CC(C)c1sc(NC(=O)c2cc(NC(=O)c3cc(NC(=O)c4cscn4)cn3C)cn2C)nc1C(=O)NCCCN(C)C
Escherichia coli [1]
  Activity: inactive
Serratia marcescens [3]
  Activity: inactive
Streptococcus pyogenes [4]
  Activity: inactive
Streptococcus pneumoniae [5]
  Activity: inactive
Bacillus cereus [6]
  inhibition at 100 µM: 42%
Salmonella enterica [16]
  MIC50: 52 µM (≈ 32.5 µg/mL)
  MIC90: 134 µM (≈ 83.9 µg/mL)
Bacillus cereus [11]
  inhibition (INH): 40%
Salmonella enterica [12]
  inhibition (INH): 41%
[13]
  inhibition at 10 µM: 92.4%
[17]
  cytotoxicity at 24 h, 50 µM: 20%
DNA [14]
  ΔTm: 20 °C
DNA [18]
  K: 2 10^6/M
DNA [19]
  deltaH: -19 kcal/mol
DNA [20]
  TdeltaS: -10.5 kcal/mol
DNA [21]
  deltaG: -8.46 kcal/mol
DNA [22]
  Activity: Active
[15]
  pKa: 9.3

## Cn1cc(NC(=O)c2cc(NC(=O)c3ccc(C#Cc4ccccc4)cc3)cn2C)cc1C(=O)NCCCN1CCOCC1
Escherichia coli [1]
  inhibition at 100 µM: 40%
Salmonella enterica [2]
  inhibition at 100 µM: 90%
Serratia marcescens [3]; ATCC 13880, 2 h
  inhibition at 100 µM: 80%
Streptococcus pyogenes [4]
  inhibition at 100 µM: 83%
Streptococcus pneumoniae [5]
  inhibition at 100 µM: 97%
Bacillus cereus [6]
  inhibition at 100 µM: 98%
Escherichia coli [7]
  MIC90: 106 µM (≈ 62.8 µg/mL)
Salmonella enterica [16]
  MIC50: 58 µM (≈ 34.4 µg/mL)
  MIC90: 117 µM (≈ 69.1 µg/mL)
Serratia marcescens [23]
  MIC90: 88 µM (≈ 52.2 µg/mL)
Streptococcus pyogenes [8]
  MIC90: 51 µM (≈ 30.2 µg/mL)
Streptococcus pneumoniae [9]
  MIC90: 53 µM (≈ 31.4 µg/mL)
Bacillus cereus [11]
  inhibition (INH): 74%
Salmonella enterica [12]
  inhibition (INH): 30%
[13]
  inhibition at 10 µM: 97.7%
[17]
  cytotoxicity at 24 h, 50 µM: 20%
DNA [14]
  ΔTm: 22 °C
[15]
  pKa: 7.01

## CN(C)CCCNC(=O)c1cc(NC(=O)c2cc(NC(=O)c3cc(NC(=O)c4cscn4)cn3C)cn2C)cn1C
[17]
  cytotoxicity at 24 h, 50 µM: 20%
[15]
  pKa: 9.3

## Cc1ccc(CSCCC(=O)Nc2cc(C(=O)Nc3cc(C(=O)NCCCN4CCOCC4)n(C)c3)n(C)c2)cc1
[13]
  inhibition at 10 µM: 2.57%
NHDF
  Activity: Non-Toxic
[15]
  pKa: 7.01

## CN(C)CCCNC(=O)c1cc(NC(=O)c2cc(NC(=O)c3ccc(/C=C/c4ccccc4)cc3)cn2C)cn1C
[13]
  inhibition at 10 µM: 64.1%
NHDF
  Activity: Toxic
[15]
  pKa: 9.3

## CN(C)CCCNC(=O)c1cc(NC(=O)c2cc(NC(=O)c3cc(NC(=O)c4nccn4C)cn3C)cn2C)cn1C
[13]
  inhibition at 10 µM: -3.79%
NHDF
  Activity: Toxic
[15]
  pKa: 9.3

## CC(C)c1sc(NC(=O)c2cc(NC(=O)c3cc(NC(=O)c4nccn4C)cn3C)cn2C)nc1C(=O)NCCCN(C)C
Escherichia coli [1]
  Activity: inactive
Salmonella enterica [2]
  inhibition at 100 µM: 60%
Serratia marcescens [3]
  Activity: inactive
Streptococcus pyogenes [4]
  Activity: inactive
Streptococcus pneumoniae [5]
  inhibition at 100 µM: 60%
Bacillus cereus [6]
  inhibition at 100 µM: 63%
Salmonella enterica [16]
  MIC50: 64 µM (≈ 39.9 µg/mL)
  MIC90: 101 µM (≈ 62.8 µg/mL)
Streptococcus pneumoniae [9]
  MIC90: 67 µM (≈ 41.7 µg/mL)
Bacillus cereus [10]
  MIC50: 28 µM (≈ 17.4 µg/mL)
  MIC90: 33.7 µM (≈ 21 µg/mL)
Bacillus cereus [11]
  inhibition (INH): 90%
Salmonella enterica [12]
  inhibition (INH): 77%
[13]
  inhibition at 10 µM: 24.1%
[17]
  cytotoxicity at 24 h, 50 µM: 20%
DNA [14]
  ΔTm: 18 °C
DNA [18]
  K: 1.42 10^6/M
DNA [19]
  deltaH: -20.6 kcal/mol
DNA [20]
  TdeltaS: -12.2 kcal/mol
DNA [21]
  deltaG: -8.41 kcal/mol
DNA [22]
  Activity: Active
[15]
  pKa: 9.3

## Cc1ccc(CSCCC(=O)Nc2cc(C(=O)Nc3cc(C(=O)NCCCN(C)C)n(C)c3)n(C)c2)cc1
[13]
  inhibition at 10 µM: 2.57%
[17]
  cytotoxicity at 24 h, 50 µM: 20%
[15]
  pKa: 9.3

## CN(C)CCCNC(=O)c1cc(NC(=O)c2cc(NC(=O)c3ccc(C#Cc4ccccc4)cc3)cn2C)cn1C
Bacillus cereus [6]
  inhibition at 100 µM: 59%
[13]
  inhibition at 10 µM: 126%
[15]
  pKa: 9.3

## Cn1cc(NC(=O)c2cc(NC(=O)CCSc3ccc4ccccc4c3)cn2C)cc1C(=O)NCCCN1CCOCC1
Serratia marcescens [3]
  Activity: inactive
[13]
  inhibition at 10 µM: 7.46%
[17]
  cytotoxicity at 24 h, 50 µM: 20%
[15]
  pKa: 7.01
